Results reported in patent US10167300B2, “Metalloenzyme inhibitor compounds as fungicides” (priority 2014, dated 2019).
Read-outs that look alike come from different tables or passages of the source.

Legend:
[1] = test system: Mycosphaerella graminicola; Anamorph: Septoria tritici; Bayer Code SEPTTR (field isolate collected from Wellsbourne, England in 2012, FI SEPTTR); assay: Type B (low volume, EC formulation, track sprayer 200 L/ha) assay, leaf blotch of wheat, SEPTTR field isolate (FI SEPTTR); format: in vivo, Mycosphaerella graminicola on wheat plants (variety Yuma); conditions: field isolate, low volume EC, 100 g/ha, wheat (Yuma); for Disease Control, FI SEPTTR Type B Assay (100 g/ha) 3 DC: 3 Day Curative; for Disease Control, FI SEPTTR Type B Assay (100 g/ha) 3 DP: 3 Day Protectant
Outline: (§1)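 Wheat seedlings (Yuma, first leaf emerged) sprayed with acetone/Triton X-100 solutions (Type A) or 10% EC diluted in 0.1% Trycol at 200 L/ha (Type B), inoculated before or after spraying. Inoculated plants held 3 days at 20 °C, 100% RH, then greenhouse; % disease control from severity versus untreated plants.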

[2] = test system: Mycosphaerella graminicola; Anamorph: Septoria tritici; Bayer Code SEPTTR (standard laboratory isolate, SI SEPTTR); assay: Type A (high volume) assay, leaf blotch of wheat, standard laboratory SEPTTR isolate (SI SEPTTR); format: in vivo, Mycosphaerella graminicola on wheat plants (variety Yuma); conditions: Zymoseptoria tritici, standard laboratory isolate, high volume, 50 ppm, wheat (Yuma)
Outline: as §1

[3] = test system: Mycosphaerella graminicola; Anamorph: Septoria tritici; Bayer Code SEPTTR (standard laboratory isolate, SI SEPTTR); assay: Type B (low volume, EC formulation, track sprayer 200 L/ha) assay, leaf blotch of wheat, standard laboratory SEPTTR isolate (SI SEPTTR); format: in vivo, Mycosphaerella graminicola on wheat plants (variety Yuma); conditions: Zymoseptoria tritici, 72 h, standard laboratory isolate, low volume EC, 100 g/ha, wheat (Yuma)
Experimental: Example A: Evaluation of Fungicidal Activity: Leaf Blotch of Wheat (Mycosphaerella graminicola; Anamorph: Septoria tritici; Bayer Code SEPTTR)
For Type A assays, technical grades of the experimental fungicides in Table 4 below were dissolved in acetone, and then mixed with nine volumes of water containing 110 ppm Triton X-100. The fungicide solutions were applied onto wheat seedlings using an automated booth sprayer. For Type B assays, emulsifiable concentrate (EC) formulations of technical grades of the experimental fungicides in Table 4 below were prepared at 10% (w/v), and then mixed with 150 volumes of 0.1% Trycol 5941. These solutions were applied onto wheat seedlings using an automated track sprayer at 200 L/ha. All sprayed plants were allowed to air dry prior to further handling.
Wheat plants (variety Yuma) were grown from seed in a greenhouse in 50% mineral soil/50% soil-less Metro mix until the first leaf was fully emerged, with 7-10 seedlings per pot. Prior to or after application of experimental fungicides, plants were inoculated either with spores of a standard laboratory SEPTTR isolate (SI SEPTTR) or with spores from a SEPTTR field isolate collected from Wellsbourne, England in 2012 (FI SEPTTR). After inoculation the plants were kept for 3 days at 20° C. in 100% relative humidity (one day in a dark dew chamber followed by two days in a lighted dew chamber). Plants were then transferred to a 20° C. greenhouse for disease development. When disease symptoms were fully expressed on untreated plants, infection levels on treated plants were assessed on a scale of 0 to 100 percent disease severity. Percent disease control was calculated using the ratio of disease severity on treated plants relative to untreated plants.

[4] = Type B (low volume, EC formulation, track sprayer 200 L/ha) assay, leaf blotch of wheat, SEPTTR field isolate (FI SEPTTR); format: in vivo, Mycosphaerella graminicola on wheat plants (variety Yuma); conditions: Zymoseptoria tritici, 72 h, field isolate, low volume EC, 100 g/ha, wheat (Yuma)
Outline: as §1

[5] = 24 h, 1 Day Protectant, read-out: Disease Control, SI SEPTTR Type A Assay (50 ppm) 1 DP
[6] = 72 h, 3 Day Curative, read-out: Disease Control, SI SEPTTR Type A Assay (50 ppm) 3 DC
[7] = 3 Day Curative, read-out: Disease Control, SI SEPTTR Type B Assay (100 g/ha) 3 DC
[8] = 3 Day Protectant, read-out: Disease Control, SI SEPTTR Type B Assay (100 g/ha) 3 DP
[9] = 3 Day Curative, read-out: Disease Control, FI SEPTTR Type B Assay (100 g/ha) 3 DC
[10] = 3 Day Protectant, read-out: Disease Control, FI SEPTTR Type B Assay (100 g/ha) 3 DP

Structure (SMILES) | Disease Control, FI SEPTTR Type B Assay (100 g/ha) 3 DC [1] | Disease Control, FI SEPTTR Type B Assay (100 g/ha) 3 DP [1] | pest or weed control at 50 ppm [2, 5] | pest or weed control at 50 ppm [2, 6] | melting point | pest or weed control at 100 g/ha [3, 7] | pest or weed control at 100 g/ha [3, 8] | pest or weed control at 100 g/ha [4, 9] | pest or weed control at 100 g/ha [4, 10]
CCOC(CC)(c1cncnc1)c1ccc(-c2ccc(OC(F)(F)F)cc2F)cn1 (stereo not shown) [Compound 193] | D (<40) | B (60-79) | – | – | – | – | – | – | –
CC(O)(Cc1cncnc1)c1ccc(-c2ccc(Cl)cc2)cn1 (stereo not shown) [Compound 25, 2-[5-(4-chlorophenyl)-2-pyridyl]-1-pyrimidin-5-yl-propan-2-ol] | – | – | 40 to 59% | 80 to 100% | 150 to 155 °C | – | – | – | –
CC(C)(C)C(O)(Cc1cncnc1)c1ccc(-c2ccc(SC(F)(F)F)cc2)cn1 (stereo not shown) [Compound 231] | D (<40) | B (60-79) | – | – | – | – | – | – | –
CC(C)(C)C(O)(c1cncnc1)c1ccc(-c2ccc(C#N)cc2)cn1 (stereo not shown) [Compound 88] | – | – | 80 to 100% | – | – | 80 to 100% | 80 to 100% | 80 to 100% | 80 to 100%
CC(C)C(O)(c1cncnc1)c1ccc(-c2ccc(OC(F)(F)F)cc2)cn1 (stereo not shown) [Compound 63] | – | – | 80 to 100% | 80 to 100% | – | 80 to 100% | 80 to 100% | 40 to 59% | 60 to 79%
CC(C)C(O)(c1cncnc1)c1ccc(Oc2ccc(Cl)cn2)cn1 (stereo not shown) [Compound 13] | – | – | 80 to 100% | 80 to 100% | – | 60 to 79% | 80 to 100% | 40 to 59% | 60 to 79%
OC(c1cccnc1)(c1ccc(-c2ccc(OC(F)(F)F)cc2)cn1)C1CC1 (stereo not shown) [Compound 78] | – | – | 80 to 100% | – | – | 80 to 100% | 80 to 100% | 60 to 79% | 60 to 79%
CC(C)(C)c1ccc(-c2ccc(C(O)(c3cncnc3)C(C)(C)C)nc2)cc1 (stereo not shown) [Compound 97] | – | – | 80 to 100% | – | – | 80 to 100% | 80 to 100% | 80 to 100% | 80 to 100%
CC(C)(C)C(O)(c1cncnc1)c1ccc(-c2ccc(C(F)(F)F)nc2)cn1 (stereo not shown) [Compound 107] | – | – | 80 to 100% | – | – | 80 to 100% | 60 to 79% | 80 to 100% | 60 to 79%
CC(C)C(O)(Cc1cncnc1)c1ccc(-c2ccc(Cl)cc2)cn1 (stereo not shown) [Compound 38] | – | – | 80 to 100% | 80 to 100% | – | 80 to 100% | 80 to 100% | 80 to 100% | 40 to 59%
COc1ncncc1C(O)(c1ccc(-c2ccc(OC(F)(F)F)cc2)cn1)C(C)(C)C (stereo not shown) [Compound 167] | – | – | 80 to 100% | – | – | 80 to 100% | 60 to 79% | 80 to 100% | 80 to 100%
CCC(C)(C)C(O)(c1cncnc1)c1ccc(-c2ccc(OC(F)(F)F)cc2)cn1 (stereo not shown) [Compound 93, 2,2-dimethyl-1-pyrimidin-5-yl-1-[5-[4-(trifluoromethoxy)phenyl]-2-pyridyl]butan-1-ol] | – | – | 80 to 100% | – | – | 80 to 100% | 80 to 100% | 60 to 79% | 80 to 100%
CC(C)(C)C(O)(c1cccnc1)c1ccc(-c2ccc(OC(F)F)cc2)cn1 (stereo not shown) [Compound 82] | – | – | 80 to 100% | – | – | 80 to 100% | 80 to 100% | 80 to 100% | 80 to 100%
CC(C)(C)C(O)(c1cccnc1)c1ccc(-c2ccc(C3(C#N)CC3)cc2)cn1 (stereo not shown) [Compound 145] | – | – | 80 to 100% | – | – | 80 to 100% | 60 to 79% | 80 to 100% | 80 to 100%
CC(C)(C)C(O)(c1cncnc1)c1ccc(-c2ccc(SC(F)(F)F)cc2)cn1 (stereo not shown) [Compound 125] | – | – | 80 to 100% | – | – | 80 to 100% | 80 to 100% | 80 to 100% | 60 to 79%
CCC(C)(C)C(O)(Cc1cncnc1)c1ccc(-c2ccc(Cl)cc2)cn1 (stereo not shown) [Compound 57] | – | – | 80 to 100% | 80 to 100% | – | 80 to 100% | 80 to 100% | < 40% | < 40%
CC(C)(C)C(O)(c1cncnc1)c1ccc(-c2ccc(C3(C#N)CC3)cc2)cn1 (stereo not shown) [Compound 105] | – | – | 80 to 100% | – | – | 80 to 100% | 80 to 100% | 80 to 100% | 80 to 100%
CC(C)(C)C(O)(c1cncnc1)c1ccc(-c2ccccc2OC(F)(F)F)cn1 (stereo not shown) [Compound 104] | – | – | 80 to 100% | – | – | 80 to 100% | 80 to 100% | < 40% | 80 to 100%
CC(=O)c1ccc(-c2ccc(C(O)(c3cncnc3)C(C)(C)C)nc2)cc1 (stereo not shown) [Compound 101] | – | – | 80 to 100% | – | – | 80 to 100% | 80 to 100% | 80 to 100% | 80 to 100%
CC(C)(C)C(O)(c1cncnc1)c1ccc(-c2cccc(OC(F)(F)F)c2)cn1 (stereo not shown) [Compound 103] | – | – | 80 to 100% | – | – | 60 to 79% | 80 to 100% | < 40% | 80 to 100%
CC(C)(C)C(O)(c1cncnc1)c1ccc(-c2ccc(OC(F)(F)F)c(F)c2)cn1 (stereo not shown) [Compound 106] | – | – | 80 to 100% | – | – | 80 to 100% | 80 to 100% | 80 to 100% | 80 to 100%
Cc1cc(-c2ccc(CC(F)(F)F)nc2)cnc1C(O)(c1cncnc1)C(C)(C)C (stereo not shown) [Compound 131] | – | – | 80 to 100% | – | – | 80 to 100% | 60 to 79% | 60 to 79% | 60 to 79%
CC(C)(C#N)c1ccc(-c2ccc(C(O)(c3cncnc3)C(C)(C)C)nc2)cc1 (stereo not shown) [Compound 152] | – | – | 80 to 100% | – | – | 80 to 100% | 80 to 100% | 80 to 100% | 80 to 100%
Cc1cc(C2(C#N)CC2)ccc1-c1ccc(C(O)(c2cncnc2)C(C)(C)C)nc1 (stereo not shown) [Compound 158] | – | – | 80 to 100% | – | – | 80 to 100% | 80 to 100% | 80 to 100% | 80 to 100%
CC(C)(C)C(O)(c1cncnc1)c1ccc(-c2ccccc2)cn1 (stereo not shown) [Compound 114] | – | – | 60 to 79% | – | – | 80 to 100% | 80 to 100% | 80 to 100% | 60 to 79%
